Measurements taken from patent US7914797B2 (priority 2005, dated 2011).

Target: HLA-A2 on T2 cells (Homo sapiens, UniProt P04439, D140Y/D185E/D98H/E176V/E277Q/G131W/G231S/I119V/I121R/I166T/I218V/L300P/L318F/N151K/N90K/P208A/P217A/Q86G/Q94H/R138H/R169H/T345S)
Assay type: binding

Sequence | binding of peptide to HLA-A2 on T2 cells
ELRSRYWAI [NP 380-388] | some low binding capacity, which was not dose dependent
LLTEVETYV [M1 3-11] | High and dose dependent binding
PKYVKQNTLKLAT [HA 307-319] | some low binding capacity, which was not dose dependent
SKAYSNCYPYDVPDYASL [HA 91-108 peptide] | binding capacity only at the higher (100 μM) concentration
